These results are taken from article PMC9468336, “The choanoflagellate pore-forming lectin SaroL-1 punches holes in cancer cells by targeting the tumor-related glycosphingolipid Gb3” (Communications Biology, 2022).

What is called inhibition is the change of the read-out against control, counted positive when it falls.

The target in data set [1] is T1, hemolytic activity of SaroL-1 on rabbit erythrocytes (Salpingoeca rosetta, UniProt F2UID9).
T1 sequence (F2UID9 1-329): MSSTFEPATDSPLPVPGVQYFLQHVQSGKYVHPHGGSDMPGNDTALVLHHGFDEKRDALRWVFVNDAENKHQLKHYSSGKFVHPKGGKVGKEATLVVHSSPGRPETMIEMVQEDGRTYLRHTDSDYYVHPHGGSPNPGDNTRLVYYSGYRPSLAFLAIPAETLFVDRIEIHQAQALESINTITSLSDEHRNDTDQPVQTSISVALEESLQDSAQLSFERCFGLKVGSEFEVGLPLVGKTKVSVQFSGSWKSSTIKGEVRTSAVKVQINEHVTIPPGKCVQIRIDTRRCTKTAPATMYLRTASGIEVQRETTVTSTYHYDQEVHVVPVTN
Put plainly: Inhibition of hemolytic activity (IHA) of SaroL-1 by carbohydrates. It counts as cell-based. The following applies: for inhibition: SaroL-1 217 nM, read-out: Mean % inhibition of hemolysis. How it is done: Both HA and IHA assays were performed in U-shaped 96-well microtiter plates. In both cases, a control negative experiment was performed with Buffer A added to erythrocyte solution (2% final concentration), and the resulting value was subtracted from all data.
IHA was performed in U-shaped 96-well microtiter plates. […] 4% rabbit erythrocytes were added to the mixture in a 1:1 ratio and incubated for 1–2 h at 37 °C. The samples were centrifuged, 2600 × g for 15 min at RT, and the absorbance of the supernatant was measured at 540 nm by a Tecan reader.

A short description of data set [2]: Confocal imaging of SaroL-1 binding to Gb3 wt GUVs. The following applies: 200 nM fluorescent SaroL-1, Gb3 wt GUVs, compared with FSL-Gb3 GUVs. On the set-up: species or system porcine. An excerpt: (§1) GUVs were composed of 1,2-dioleoyl-sn-glycero-3-phosphocholine (DOPC), cholesterol (both AvantiPolar Lipids, United States), Atto 647 N 1,2-dioleoyl-sn-glycero-3-phosphoethanolamine (DOPE; Sigma-Aldrich), and one of the following glycolipids at a molar ratio of 64.7:30:0.3:5. The glycolipids are globotriaosylceramide (Gb3, Matreya), FSL-Gb3 (Function-Spacer-Lipid with globotriaosyl saccharide), and corresponding FSL-isoGb3 (Function-Spacer-Lipid with iso-globotriaosyl saccharide) synthetized as previously described[84],[85], FSL-A(tri) (Function-Spacer-Lipid with blood group A trisaccharide; Sigma-Aldrich), FSL-B(tri) (Function-Spacer-Lipid with blood group B trisaccharide; Sigma-Aldrich) or lactosylceramide (LC, Sigma-Aldrich).
(§2) GUVs were prepared by the electroformation method as earlier described. Briefly, lipids dissolved in chloroform of a total concentration of 0.5 mg/mL were spread on indium tin oxid-covered (ITO) glass slides and dried in a vacuum for at least 1 h or overnight. […]
(§3) Samples of GUVs and SaroL-1 were imaged using a confocal fluorescence microscope (Nikon Eclipse Ti-E inverted microscope equipped with Nikon A1R confocal laser scanning system, 60x oil immersion objective, NA = 1.49 and four laser lines: 405 nm, 488 nm, 561 nm, and 640 nm). […]

The nature of data set [3]: Confocal imaging of SaroL-1 binding to FSL-A GUVs. The following applies: 200 nM SaroL-1, FSL-A GUVs.
Description: as §1, §2, §3

Data set [4] can be described thus: Confocal imaging of SaroL-1 binding to FSL-B GUVs. The following applies: 200 nM SaroL-1, FSL-B GUVs.
Description: as §1, §2, §3

A short description of data set [5]: Confocal imaging of SaroL-1 binding to DOPC GUVs without glycolipids. The following applies: 200 nM SaroL-1, DOPC GUVs without glycolipids (negative control).
Description: as §1, §2, §3

Where two headings read alike, the source gives them in different places.

As for `O=[N+]([O-])c1ccc(O[C@H]2O[C@H](CO)[C@H](O)[C@H](O)[C@H]2O)cc1` [PNPG, p-nitrophenyl-α-D-galactopyranoside], the “inhibition of hemolysis (in words)” value in data set [1] (10 mM carbohydrate) is “complete inhibition”. The inhibition in data set [1] (sugar 0.003 mM) turned out to be 8.15%; in data set [1] (sugar 0.006 mM), 10.7%; in data set [1] (sugar 0.0125 mM), 12.1%; in data set [1] (sugar 0.025 mM), 9.06%; in data set [1] (sugar 0.05 mM), 3.85%; in data set [1] (sugar 0.1 mM), 3.39%. The inhibition in data set [1] (sugar 0.2 mM) is 1.44%; in data set [1] (sugar 0.4 mM), 2.69%; in data set [1] (sugar 0.8 mM) it was 8.59%; in data set [1] (sugar 1.6 mM) it was 24.5%; in data set [1] (sugar 3.125 mM), 55.9%; in data set [1] (sugar 6.25 mM) it was 90.5%. Moreover, the inhibition in data set [1] (sugar 12.5 mM), in data set [1] (sugar 25 mM) and in data set [1] (sugar 50 mM) was 100% each time.

B1: SaroL-1: Recombinant pore-forming lectin of Salpingoeca rosetta (UniProt F2UID9, 329 amino acids) with β-trefoil and aerolysin-like domains (protein)
chain: T1 sequence (F2UID9 1-329)
modifications: left off: His6, N-terminal, state not stated
notes: Recombinant pore-forming lectin of Salpingoeca rosetta (UniProt F2UID9, 329 amino acids) with β-trefoil and aerolysin-like domains
For B1, the “binding to GUVs” value in data set [2] is given as “of the same order”; in data set [3] it was “No binding”; in data set [4], “No binding”; in data set [5], “No binding”.
